Laboratory results taken from article PMC11243693, “Synthesis and Biological Evaluation of New Compounds with Nitroimidazole Moiety” (Molecules, 2024).

Assays:
A-549 cells = experiment: MTT assay, A-549 cells; format: cell-based, human; conditions: for IC50: A549, A-549 human lung carcinoma, MTT, 24 h, mean SD; for SI (Selectivity Index): IC50 for normal cell line (HaCaT)/IC50 A-549
Procedure: (§1) Colon cancer (SW480), breast adenocarcinoma (MDA-MB-231), lung carcinoma (A-549), prostate cancer (PC3), and immortal keratinocyte (HaCaT) cell lines of human origin were acquired from the American Type Culture Collection (ATCC). The recommended culture media and protocols provided by ATCC were as follows: SW480 were cultured in Minimum Essential Medium (MEM), MDA-MB-231, A-549, and HaCaT cells were cultured in Dulbecco’s Modified Eagle Medium (DMEM), while PC3 was cultured in Roswell Park Memorial Institute Medium (RPMI). The culture media were supplemented with 10% fetal bovine serum (FBS), penicillin (100 U/mL), and streptomycin (100 μg/mL). Cells were maintained in a humidified incubator at 37 °C with 5% CO2. Passaging was carried out upon reaching 80–90% confluence using 0.25% trypsin (Gibco Life Technologies, New York, NY, USA) treatment prior to experimentation.
(§2) Cell viability was assessed utilizing the MTT assay, which relies on the conversion of 3-(4,5-dimethylthiazol-2-yl)-2,5-diphenyltetrazolium bromide salt (MTT) to formazan crystals by mitochondrial dehydrogenases in viable cells. Initially, cells were plated in 96-well plates at a density of 1 × 10^4 cells per well and allowed to attach for 24 h at 37 °C in a CO2 incubator. Subsequently, the culture medium was replaced with fresh medium containing various concentrations of the test compounds (ranging from 1 to 100 μM), and cells were further cultured for 24 h at 37 °C in a CO2 incubator. Control wells were left untreated for comparison. After the incubation period, MTT solution (0.5 mg/mL in serum-free medium) was added to each well, followed by a 4-h incubation at 37 °C in a CO2 incubator. The medium was then aspirated, and the formazan crystals were dissolved by adding a mixture of isopropanol and DMSO (1:1). The absorbance of the resulting solution was measured at 570 nm using a UVM 340 reader (ASYS Hitech GmbH, Seekirchen am Wallersee, Austria). IC50 values were determined using GraphPad software (GraphPad Prism 8 Software).

SW620 cells = experiment: MTT assay, SW620 cells; format: cell-based, human; conditions: for SI (Selectivity Index): IC50 for normal cell line (HaCaT)/IC50 SW620; for IC50: SW-620, SW620 human metastatic colon cancer, MTT, 24 h, mean SD
MDA-MB-231 cells = experiment: MTT assay, MDA-MB-231 cells; format: cell-based, human; conditions: for IC50: MDA-MB-231 human breast adenocarcinoma, MTT, 24 h, mean SD; for SI (Selectivity Index): IC50 for normal cell line (HaCaT)/IC50 MDA-MB-231
Procedure: as §1, §2

PC3 cells = experiment: MTT assay, PC3 cells; format: cell-based, human; conditions: for SI (Selectivity Index): IC50 for normal cell line (HaCaT)/IC50 PC3; for IC50: PC-3, PC3 human metastatic prostate cancer, MTT, 24 h, mean SD
Procedure: as §1, §2

HaCaT cells = experiment: MTT assay, HaCaT normal cells; format: cell-based; conditions: HaCaT human immortal keratinocyte (normal cells), 24 h, mean SD
Procedure: as §1, §2

| Compound | IC50 (A-549 cells) | melting point | SI (Selectivity Index) (SW620 cells) | IC50 (SW620 cells) | IC50 (MDA-MB-231 cells) | SI (Selectivity Index) (PC3 cells) | IC50 (PC3 cells) | IC50 (HaCaT cells) | SI (Selectivity Index) (A-549 cells) | SI (Selectivity Index) (MDA-MB-231 cells) |
| --- | --- | --- | --- | --- | --- | --- | --- | --- | --- | --- |
| COc1ccc(C=NNC(=O)c2nc([N+](=O)[O-])cn2C)c(O)c1 [Compound 30, N’-[(2-hydroxy-4-methoxyphenyl)methylidene]-1-methyl-4-nitro-1H-imidazole-2-carbohydrazide] | > 100 µM | 214 to 216 °C | 1.5 | 64.2 ± 6.88 µM | > 100 µM | 1.4 | 70.2 ± 4.2 µM | 97 ± 5.48 µM |  |  |
| COc1ccc(O)c(C=NNC(=O)c2nc([N+](=O)[O-])cn2C)c1 [Compound 31, N’-[(2-hydroxy-5-methoxyphenyl)methylidene]-1-methyl-4-nitro-1H-imidazole-2-carbohydrazide] | > 100 µM | 236 to 238 °C |  | 86.3 ± 3.81 µM | > 100 µM |  | 70.4 ± 2.76 µM | > 100 µM | 1 | 1 |
| COc1cccc2c1C(=O)c1c(O)c3c(c(O)c1C2=O)C[C@@](O)(C(=O)CO)C[C@@H]3O[C@H]1C[C@H](N)[C@H](O)[C@H](C)O1 [Doxo-rubicin, doxorubicin] | 0.2 ± 0.09 µM |  | 1.0 | 0.3 ± 0.1 µM | 1.6 ± 0.23 µM | 1 | 0.3 ± 0.1 µM | 0.3 ± 0.1 µM | 1.5 | 0.19 |
